Measured values taken from PMC8286840, “Identifying SARS-CoV-2 antiviral compounds by screening for small molecule inhibitors of Nsp3 papain-like protease” (Biochemical Journal, 2021).
Where a name gives a salt, the structure may show the parent alone. Read-outs that look alike come from different tables or passages of the source.

Columns and labels:
[1] = molecular target: T1, SARS-CoV-2 PLpro (nsp3 1564–1878) (Severe acute respiratory syndrome coronavirus 2, UniProt P0DTD1); test: biochemical; parameters: FRET-quenched peptide (Pro3) cleavage by PLpro, 10 min pre-incubation, slope over 20 min, normalised to no-compound control; conditions: high concentration screen, read-out: % of control remaining
[2] = molecular target: T1, SARS-CoV-2 PLpro (nsp3 1564–1878); test: biochemical; parameters: FRET-quenched peptide (Pro3) cleavage by PLpro, 10 min pre-incubation, slope over 20 min, normalised to no-compound control; conditions: low concentration screen, read-out: % of control remaining

`Oc1ccc(-c2nc(-c3ccc(F)cc3)c(-c3ccncc3)[nH]2)cc1` [SB 202190 - 4-[4-(4-Fluorophenyl)-5-(4-pyridinyl)-1H-imidazol-2-yl]phenol] showed a remaining activity at 3.75 µM ([1]; Well no.=2380) of 94.8% and a remaining activity at 1.25 µM ([2]; Well no.=2380) of 96.6%.
`CC(CCC(=O)O)CC(=O)O` (stereo not shown) [3-Methyladipic acid] gave a remaining activity at 3.75 µM ([1]; Well no.=6533) of 98.2% and a remaining activity at 1.25 µM ([2]; Well no.=6533) of 107%.
For `Cc1[nH]c2ccccc2c1CCNCc1ccc(/C=C/C(=O)NO)cc1` [Panobinostat (LBH589)], the remaining activity at 3.75 µM ([1]; Well no.=4832) was 96.4% and the remaining activity at 1.25 µM ([2]; Well no.=4832) was 94.6%.
Molecule `COc1ccc2c(c1OC)C(=O)O[C@@H]2[C@H]1c2c(cc3c(c2OC)OCO3)CCN1C` [Noscapine] has a remaining activity at 3.75 µM ([1]; Well no.=6613) of 106% and a remaining activity at 1.25 µM ([2]; Well no.=6613) of 106%.
`C#CCN(C)CCCOc1ccc(Cl)cc1Cl` [Clorgyline hydrochloride] showed a remaining activity at 3.75 µM ([1]; Well no.=878) of 102% and a remaining activity at 1.25 µM ([2]; Well no.=878) of 101%.
Molecule `OC[C@@H](O)[C@@H](O)[C@H](O)[C@@H](O)CO` [Sorbitol] has a remaining activity at 3.75 µM ([1]; Well no.=8244) of 99.8% and a remaining activity at 1.25 µM ([2]; Well no.=8244) of 100%.
For `CC(CN1c2ccccc2Sc2ccccc21)N(C)C` (stereo not shown) [Promethazine hydrochloride], the remaining activity at 3.75 µM ([1]; Well no.=860) was 101% and the remaining activity at 1.25 µM ([2]; Well no.=860) was 100%.
`O=C(c1ccc(F)cc1)C1CCN(CCn2c(=O)[nH]c3ccccc3c2=O)CC1` [Ketanserin tartrate] was tested, and the remaining activity at 3.75 µM ([1]; Well no.=1515) was 95.4% and the remaining activity at 1.25 µM ([2]; Well no.=1515) was 93.9%.
For `CC(C)NCC(O)COc1ccc(COCCOC(C)C)cc1` (racemic), the remaining activity at 3.75 µM ([1]; Well no.=6415) was 93.2% and the remaining activity at 1.25 µM ([2]; Well no.=6415) was 99.2%.
Molecule `Cc1ccc2c(c1)C1(CCN(CCc3nc(-c4ccccc4)oc3C)CC1)OC(=O)N2` [RS 504393] has a remaining activity at 3.75 µM ([1]; Well no.=8391) of 95.2% and a remaining activity at 1.25 µM ([2]; Well no.=8391) of 99.2%.
For `C[C@@H]1[C@@H]2Cc3ccc(O)cc3[C@@]1(C)CCN2CC1CC1` [(+)-Cyclazocine], the remaining activity at 3.75 µM ([1]; Well no.=583) was 98.8% and the remaining activity at 1.25 µM ([2]; Well no.=583) was 72.1%.
In the case of `NC(=O)c1cnccn1` [Pyrazinecarboxamide], the remaining activity at 3.75 µM ([1]; Well no.=1395) is reported as 99.2% and the remaining activity at 1.25 µM ([2]; Well no.=1395) is reported as 101%.
For `COc1cc(Nc2ncc(F)c(Nc3ccc4c(n3)NC(=O)C(C)(C)O4)n2)cc(OC)c1OC` [R406], the remaining activity at 3.75 µM ([1]; Well no.=4816) was 99.1% and the remaining activity at 1.25 µM ([2]; Well no.=4816) was 101%.
With `N[C@@H](Cc1ccc(O)c(O)c1)C(=O)O` [L-3,4-Dihydroxyphenylalanine] the remaining activity at 3.75 µM ([1]; Well no.=634) was 105% and the remaining activity at 1.25 µM ([2]; Well no.=634) was 101%.
`NC1CONC1=O` (racemic) [DL-Cycloserine] showed a remaining activity at 3.75 µM ([1]; Well no.=136) of 108% and a remaining activity at 1.25 µM ([2]; Well no.=136) of 109%.
`CCCN(CCC)C(=O)Cc1c(-c2ccc(Cl)cc2)nc2ccc(Cl)cn12` [Alpidem] gave a remaining activity at 3.75 µM ([1]; Well no.=5821) of 106% and a remaining activity at 1.25 µM ([2]; Well no.=5821) of 108%.
`Nc1c(Br)cc(Br)cc1CN[C@H]1CC[C@H](O)CC1` [Ambroxol] showed a remaining activity at 3.75 µM ([1]; Well no.=1614) of 101%, a remaining activity at 3.75 µM ([1]; Well no.=3892) of 97.9% and a remaining activity at 1.25 µM ([2]; Well no.=1614) of 102%. The remaining activity at 1.25 µM ([2]; Well no.=3892) was 98.1%.
In the case of `CCCn1c(=O)c2[nH]c(C3CCCC3)nc2n(CCC)c1=O` [8-Cyclopentyl-1,3-dipropylxanthine], the remaining activity at 3.75 µM ([1]; Well no.=675) is reported as 97.1% and the remaining activity at 1.25 µM ([2]; Well no.=675) is reported as 93.6%.
Work on `CC1=CC(=O)NS(=O)(=O)O1` [Acesulfame Potassium] yielded a remaining activity at 3.75 µM ([1]; Well no.=5318) of 93.1% and a remaining activity at 1.25 µM ([2]; Well no.=5318) of 94.9%.
In the case of `CN(C)c1cc(NC(=O)CNC(C)(C)C)c(O)c2c1C[C@H]1C[C@H]3[C@H](N(C)C)C(O)=C(C(N)=O)C(=O)[C@@]3(O)C(O)=C1C2=O` [Tigecycline], the remaining activity at 3.75 µM ([1]; Well no.=4813) is reported as 107% and the remaining activity at 1.25 µM ([2]; Well no.=4813) is reported as 99%.
`Cc1cnc(-c2cnc(NCCNc3ccc(C#N)cn3)nc2-c2ccc(Cl)cc2Cl)[nH]1` [CHIR99021] showed a remaining activity at 3.75 µM ([1]; Well no.=5511) of 101% and a remaining activity at 1.25 µM ([2]; Well no.=5511) of 99.8%.
`O=S(=O)(O)CCSSCCS(=O)(=O)O` [Dimesna] was tested, and the remaining activity at 3.75 µM ([1]; Well no.=5105) was 105% and the remaining activity at 1.25 µM ([2]; Well no.=5105) was 104%.
Molecule `COc1cc(NS(=O)(=O)c2ccc(N)cc2)nc(OC)n1` [Sulfadimethoxine] has a remaining activity at 3.75 µM ([1]; Well no.=2291) of 91.8%, a remaining activity at 3.75 µM ([1]; Well no.=8358) of 95.5% and a remaining activity at 1.25 µM ([2]; Well no.=2291) of 93.2%. For the same molecule, the remaining activity at 1.25 µM ([2]; Well no.=8358) was 95.1%.
For `CN[C@@H]1[C@H](O)[C@H](NC)[C@H]2O[C@@]3(O)C(=O)C[C@@H](C)O[C@H]3O[C@@H]2[C@H]1O` [Spectinomycin], the remaining activity at 3.75 µM ([1]; Well no.=3174) was 110% and the remaining activity at 1.25 µM ([2]; Well no.=3174) was 103%.
`OC[C@@H](O)[C@H](O)[C@H](O)[C@@H](O)CO` [Dulcite] showed a remaining activity at 3.75 µM ([1]; Well no.=6883) of 94.4% and a remaining activity at 1.25 µM ([2]; Well no.=6883) of 99.2%.
Work on `CCCCc1c(-c2ccc(O)cc2)[nH]c2nccnc12` [Aloisine A, RP107] yielded a remaining activity at 3.75 µM ([1]; Well no.=2318) of 95.3% and a remaining activity at 1.25 µM ([2]; Well no.=2318) of 97.4%.
For `COc1cc([C@H]2Oc3cc([C@H]4Oc5cc(O)cc(O)c5C(=O)[C@@H]4O)ccc3O[C@@H]2CO)ccc1O` [Silybine], the remaining activity at 3.75 µM ([1]; Well no.=3753) was 104% and the remaining activity at 1.25 µM ([2]; Well no.=3753) was 101%.
`CCCCCCCCCCC/C=C\CCCCCCC(=O)O` [8(Z)-Eicosenoic acid] was tested, and the remaining activity at 3.75 µM ([1]; Well no.=4404) was 102% and the remaining activity at 1.25 µM ([2]; Well no.=4404) was 102%.
For `CC(C)C(=O)OCC(=O)[C@@]12O[C@H](C3CCCCC3)O[C@@H]1C[C@H]1[C@@H]3CCC4=CC(=O)C=C[C@]4(C)[C@H]3[C@@H](O)C[C@@]12C` [Ciclesonide], the remaining activity at 3.75 µM ([1]; Well no.=7323) was 97.2% and the remaining activity at 1.25 µM ([2]; Well no.=7323) was 95.9%.
`O=c1[nH]c2ccccc2n1CCCN1CCC(n2c(=O)[nH]c3cc(Cl)ccc32)CC1` [Domperidone] gave a remaining activity at 3.75 µM ([1]; Well no.=496) of 104%, a remaining activity at 3.75 µM ([1]; Well no.=1598) of 99.4% and a remaining activity at 3.75 µM ([1]; Well no.=7485) of 89.8%. The remaining activity at 1.25 µM ([2]; Well no.=496) was 107%, the remaining activity at 1.25 µM ([2]; Well no.=1598) was 96.5% and the remaining activity at 1.25 µM ([2]; Well no.=7485) was 94%.
In the case of `CCC1(c2c[nH]cn2)Cc2ccccc2C1` [Atipamezole (hydrochloride)], the remaining activity at 3.75 µM ([1]; Well no.=7481) is reported as 98.7% and the remaining activity at 1.25 µM ([2]; Well no.=7481) is reported as 102%.
Work on `C[C@@H]1O[C@@H](OC[C@H]2O[C@@H](Oc3cc(O)c4c(=O)cc(-c5ccc(O)cc5)oc4c3)[C@H](O)[C@@H](O)[C@@H]2O)[C@H](O)[C@H](O)[C@H]1O` [Isorhoifolin] yielded a remaining activity at 3.75 µM ([1]; Well no.=3297) of 104% and a remaining activity at 1.25 µM ([2]; Well no.=3297) of 99.4%.
For `O=C(O)CCC(=O)C(=O)O` [2-Ketoglutaric acid], the remaining activity at 3.75 µM ([1]; Well no.=7061) was 98.4% and the remaining activity at 1.25 µM ([2]; Well no.=7061) was 103%.
Work on `CC(=O)C1=C(O)C=C2Oc3c(C(C)=O)c(O)c(C)c(O)c3[C@@]2(C)C1=O` [(+)-Usnic acid] yielded a remaining activity at 3.75 µM ([1]; Well no.=3394) of 102% and a remaining activity at 1.25 µM ([2]; Well no.=3394) of 98.2%.
